Source: publication PMC9571063 (Molecules, 2022)
pIC50: −log10 of the molar value. “And” between values parts separate entries of the source, which are not always exact repeats. Equal entries are not always repeated. Structures can show the parent of a compound that is named as a salt. Where two headings read alike, the source gives them in different places.

Tests used:
Hs_CK1ε = target: T1, Hs_CK1ε (Homo sapiens, UniProt P49674); test: ADP-Glo kinase assay, primary screen; assay type: biochemical; settings: n=2, read-out: % of residual activity Hs_CK1ε
T1 construct: host or cells: Sf9 insect cells (baculovirus)

[1] = cytotoxic assay, nuclei count (Hoechst, HCS); assay type: cell-based; settings: human, MCF7 cells (breast carcinoma); 48 h treatment; read-out: Cytotoxic studies IC50 MCF7
MmCLK1 = target: T2, MmCLK1 (Mus musculus, UniProt P22518); test: ADP-Glo kinase assay; assay type: biochemical; settings: for remaining activity at 1 µM / remaining activity at 10 µM: n=2, read-out: % of residual activity Mm_CLK1
T2 construct: host or cells: bacteria

Human skin fibroblasts = test: cytotoxic assay, nuclei count (Hoechst, HCS); assay type: cell-based; settings: summary of Table S2
Hs_CDK5/p25 = target: T3, Hs_CDK5/p25 (Homo sapiens, UniProt Q00535); test: ADP-Glo kinase assay, primary screen; assay type: biochemical; settings: n=2, read-out: % of residual activity Hs_CDK5/p25
T3 construct: host or cells: bacteria

[2] = cytotoxic assay, nuclei count (Hoechst, HCS); assay type: cell-based; settings: human, HuH7 cells (hepatocellular carcinoma); 48 h treatment; read-out: Cytotoxic studies IC50 HuH7
HsCLK4 = target: T4, HsCLK4 (Homo sapiens, UniProt Q9HAZ1); test: kinase inhibition study by Eurofins; assay type: biochemical
T4 construct: purchased Eurofins (contract assay)
Procedure: (§1) Several inhibition studies for human kinases (HsCLK2, HsCLK3, HsCLK4), as well as the KINOMEscan^SM Assaywere performed by the Eurofins company, following protocols reported on their website.

HsCLK2 = target: T5, HsCLK2 (Homo sapiens, UniProt P49760); test: kinase inhibition study by Eurofins; assay type: biochemical; settings: duplicate
T5 construct: purchased Eurofins (contract assay)
Procedure: as §1

HsCLK3 = target: T6, HsCLK3 (Homo sapiens, UniProt P49761); test: kinase inhibition study by Eurofins; assay type: biochemical; settings: duplicate
T6 construct: purchased Eurofins (contract assay)
Procedure: as §1

NIM1 = target: T7, NIM1 (Homo sapiens, UniProt Q8IY84); test: KINOMEscan; assay type: binding; settings: read-out: Percent Control
T7 construct: purchased Eurofins DiscoverX KINOMEscan (scanMAX 468)

PIP5K1A = target: T8, PIP5K1A (Homo sapiens, UniProt Q99755); test: KINOMEscan; assay type: binding; settings: read-out: Percent Control
T8 construct: purchased Eurofins DiscoverX KINOMEscan (scanMAX 468)

OSR1 = target: T9, OSR1 (Homo sapiens, UniProt O95747); test: KINOMEscan; assay type: binding; settings: read-out: Percent Control
T9 construct: purchased Eurofins DiscoverX KINOMEscan (scanMAX 468)

LYN = target: T10, LYN (Homo sapiens, UniProt P07948); test: KINOMEscan; assay type: binding; settings: read-out: Percent Control
T10 construct: purchased Eurofins DiscoverX KINOMEscan (scanMAX 468)

PFCDPK1(P.falciparum) = target: T11, PFCDPK1(P.falciparum) (Plasmodium falciparum, UniProt P62344); test: KINOMEscan; assay type: binding; settings: read-out: Percent Control
T11 construct: purchased Eurofins DiscoverX KINOMEscan (scanMAX 468)

SGK3 = target: T12, SGK3 (Homo sapiens, UniProt Q96BR1); test: KINOMEscan; assay type: binding; settings: read-out: Percent Control
T12 construct: purchased Eurofins DiscoverX KINOMEscan (scanMAX 468)

TEC = target: T13, TEC (Homo sapiens, UniProt P42680); test: KINOMEscan; assay type: binding; settings: read-out: Percent Control
T13 construct: purchased Eurofins DiscoverX KINOMEscan (scanMAX 468)

EPHA6 = target: T14, EPHA6 (Homo sapiens, UniProt Q9UF33); test: KINOMEscan; assay type: binding; settings: read-out: Percent Control
T14 construct: purchased Eurofins DiscoverX KINOMEscan (scanMAX 468)

FGFR3(G697C) = target: T15, FGFR3(G697C) (Homo sapiens, UniProt P22607, G697C); test: KINOMEscan; assay type: binding; settings: read-out: Percent Control
T15 construct: purchased Eurofins DiscoverX KINOMEscan (scanMAX 468)

PRKG1 = target: T16, PRKG1 (Homo sapiens, UniProt Q13976); test: KINOMEscan; assay type: binding; settings: read-out: Percent Control
T16 construct: purchased Eurofins DiscoverX KINOMEscan (scanMAX 468)

[3] = target: T17, RSK3(Kin.Dom.2-C-terminal) (Homo sapiens, UniProt Q15349); test: KINOMEscan; assay type: binding; settings: read-out: Percent Control
T17 construct: RSK3(Kin.Dom.2-C-terminal); purchased Eurofins DiscoverX KINOMEscan (scanMAX 468)

CDKL2 = target: T18, CDKL2 (Homo sapiens, UniProt Q92772); test: KINOMEscan; assay type: binding; settings: read-out: Percent Control
T18 construct: purchased Eurofins DiscoverX KINOMEscan (scanMAX 468)

CIT = target: T19, CIT (Homo sapiens, UniProt O14578); test: KINOMEscan; assay type: binding; settings: read-out: Percent Control
T19 construct: purchased Eurofins DiscoverX KINOMEscan (scanMAX 468)

YANK2 = target: T20, YANK2 (Homo sapiens, UniProt Q9NY57); test: KINOMEscan; assay type: binding; settings: read-out: Percent Control
T20 construct: purchased Eurofins (KINOMEscan, DiscoverX)

PRKCE = target: T21, PRKCE (Homo sapiens, UniProt Q02156); test: KINOMEscan; assay type: binding; settings: read-out: Percent Control
T21 construct: purchased Eurofins DiscoverX KINOMEscan (scanMAX 468)

TSSK1B = target: T22, TSSK1B (Homo sapiens, UniProt Q9BXA7); test: KINOMEscan; assay type: binding; settings: read-out: Percent Control
T22 construct: purchased Eurofins DiscoverX KINOMEscan (scanMAX 468)

TSSK3 = target: T23, TSSK3 (Homo sapiens, UniProt Q96PN8); test: KINOMEscan; assay type: binding; settings: read-out: Percent Control
T23 construct: purchased Eurofins DiscoverX KINOMEscan (scanMAX 468)

TAOK1 = target: T24, TAOK1 (Homo sapiens, UniProt Q7L7X3); test: KINOMEscan; assay type: binding; settings: read-out: Percent Control
T24 construct: purchased Eurofins DiscoverX KINOMEscan (scanMAX 468)

[4] = mouse CLK1 orthologue, read-out: IC50 MmCLK1

T2 sequence (P22518 whole entry): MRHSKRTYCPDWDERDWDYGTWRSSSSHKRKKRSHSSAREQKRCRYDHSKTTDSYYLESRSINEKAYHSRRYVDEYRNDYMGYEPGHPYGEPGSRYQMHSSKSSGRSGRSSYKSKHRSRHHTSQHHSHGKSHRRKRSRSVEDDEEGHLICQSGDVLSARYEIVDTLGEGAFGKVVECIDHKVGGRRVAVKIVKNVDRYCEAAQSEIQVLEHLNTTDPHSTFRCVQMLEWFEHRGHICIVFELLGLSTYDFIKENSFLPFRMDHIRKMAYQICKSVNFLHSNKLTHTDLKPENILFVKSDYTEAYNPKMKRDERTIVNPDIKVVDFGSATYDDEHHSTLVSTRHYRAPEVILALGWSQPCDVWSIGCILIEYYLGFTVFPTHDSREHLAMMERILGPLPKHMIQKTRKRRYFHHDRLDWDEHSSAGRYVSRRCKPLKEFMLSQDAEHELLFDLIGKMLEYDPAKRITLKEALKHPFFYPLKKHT
T5 sequence (P49760 whole entry): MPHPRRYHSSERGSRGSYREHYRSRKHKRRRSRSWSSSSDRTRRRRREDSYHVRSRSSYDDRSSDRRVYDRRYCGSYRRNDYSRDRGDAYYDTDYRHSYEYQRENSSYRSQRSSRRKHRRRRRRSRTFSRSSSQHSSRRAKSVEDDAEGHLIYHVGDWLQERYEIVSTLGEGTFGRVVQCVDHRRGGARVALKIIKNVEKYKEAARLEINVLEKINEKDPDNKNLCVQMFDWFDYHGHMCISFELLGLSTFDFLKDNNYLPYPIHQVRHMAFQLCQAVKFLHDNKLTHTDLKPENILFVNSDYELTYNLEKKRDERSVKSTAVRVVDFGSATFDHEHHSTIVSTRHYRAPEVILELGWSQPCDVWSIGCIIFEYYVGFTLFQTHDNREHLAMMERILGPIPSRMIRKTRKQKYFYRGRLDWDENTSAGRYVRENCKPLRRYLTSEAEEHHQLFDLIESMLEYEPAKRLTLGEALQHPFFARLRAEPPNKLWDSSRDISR
T4 sequence (Q9HAZ1 whole entry): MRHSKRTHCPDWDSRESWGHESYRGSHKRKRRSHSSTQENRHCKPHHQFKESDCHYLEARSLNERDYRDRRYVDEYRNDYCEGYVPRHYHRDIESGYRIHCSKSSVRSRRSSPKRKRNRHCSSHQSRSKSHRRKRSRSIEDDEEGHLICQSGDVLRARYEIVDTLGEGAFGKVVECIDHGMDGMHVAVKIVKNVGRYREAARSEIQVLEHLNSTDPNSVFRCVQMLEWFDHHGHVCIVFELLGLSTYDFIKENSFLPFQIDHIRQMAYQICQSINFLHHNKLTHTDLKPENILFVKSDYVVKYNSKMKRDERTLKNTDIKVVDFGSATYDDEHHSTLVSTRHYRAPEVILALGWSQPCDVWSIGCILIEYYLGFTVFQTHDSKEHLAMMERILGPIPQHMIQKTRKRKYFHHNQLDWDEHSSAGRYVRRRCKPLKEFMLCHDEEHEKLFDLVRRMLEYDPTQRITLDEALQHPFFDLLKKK
T1 sequence (P49674 whole entry): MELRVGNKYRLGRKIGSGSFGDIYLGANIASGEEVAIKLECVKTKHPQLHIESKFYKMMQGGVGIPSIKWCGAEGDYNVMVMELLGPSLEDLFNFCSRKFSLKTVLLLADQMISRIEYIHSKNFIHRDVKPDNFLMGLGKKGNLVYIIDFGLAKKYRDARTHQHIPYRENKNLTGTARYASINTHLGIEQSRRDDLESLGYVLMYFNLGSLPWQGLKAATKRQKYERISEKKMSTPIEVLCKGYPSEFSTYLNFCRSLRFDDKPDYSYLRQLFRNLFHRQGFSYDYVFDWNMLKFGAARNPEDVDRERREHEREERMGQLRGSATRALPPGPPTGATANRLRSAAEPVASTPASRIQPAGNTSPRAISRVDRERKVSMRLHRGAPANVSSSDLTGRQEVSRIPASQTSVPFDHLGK
T6 sequence (P49761 whole entry): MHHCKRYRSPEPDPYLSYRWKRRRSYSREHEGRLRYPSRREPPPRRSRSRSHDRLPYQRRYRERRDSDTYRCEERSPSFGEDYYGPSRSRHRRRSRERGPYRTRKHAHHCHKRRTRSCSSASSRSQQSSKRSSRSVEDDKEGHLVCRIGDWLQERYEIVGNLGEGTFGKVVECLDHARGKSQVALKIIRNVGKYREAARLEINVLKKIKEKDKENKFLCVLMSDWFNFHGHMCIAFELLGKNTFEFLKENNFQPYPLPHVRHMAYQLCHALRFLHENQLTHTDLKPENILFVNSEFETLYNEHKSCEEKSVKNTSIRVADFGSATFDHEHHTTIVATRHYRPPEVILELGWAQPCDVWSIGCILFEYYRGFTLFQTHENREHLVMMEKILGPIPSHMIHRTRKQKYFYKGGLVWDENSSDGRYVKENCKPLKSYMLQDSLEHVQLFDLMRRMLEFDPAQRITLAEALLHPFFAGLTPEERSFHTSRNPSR
T3 sequence (Q00535 whole entry): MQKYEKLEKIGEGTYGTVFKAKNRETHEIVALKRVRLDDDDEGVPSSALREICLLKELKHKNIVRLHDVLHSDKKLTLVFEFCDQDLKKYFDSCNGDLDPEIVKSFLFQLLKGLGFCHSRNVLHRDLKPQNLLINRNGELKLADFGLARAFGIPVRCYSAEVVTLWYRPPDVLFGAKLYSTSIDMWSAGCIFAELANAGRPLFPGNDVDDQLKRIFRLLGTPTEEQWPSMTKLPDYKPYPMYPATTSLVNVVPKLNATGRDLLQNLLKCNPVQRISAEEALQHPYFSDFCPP
T3 sequence (Q15078 99-307 partner limits assumed): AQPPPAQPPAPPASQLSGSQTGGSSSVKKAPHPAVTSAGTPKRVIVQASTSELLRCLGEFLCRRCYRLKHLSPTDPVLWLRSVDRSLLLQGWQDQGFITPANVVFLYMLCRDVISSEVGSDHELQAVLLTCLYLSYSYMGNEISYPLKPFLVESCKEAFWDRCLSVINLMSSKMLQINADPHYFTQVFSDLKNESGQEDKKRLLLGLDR
T15 sequence (P22607 23-806 G697C): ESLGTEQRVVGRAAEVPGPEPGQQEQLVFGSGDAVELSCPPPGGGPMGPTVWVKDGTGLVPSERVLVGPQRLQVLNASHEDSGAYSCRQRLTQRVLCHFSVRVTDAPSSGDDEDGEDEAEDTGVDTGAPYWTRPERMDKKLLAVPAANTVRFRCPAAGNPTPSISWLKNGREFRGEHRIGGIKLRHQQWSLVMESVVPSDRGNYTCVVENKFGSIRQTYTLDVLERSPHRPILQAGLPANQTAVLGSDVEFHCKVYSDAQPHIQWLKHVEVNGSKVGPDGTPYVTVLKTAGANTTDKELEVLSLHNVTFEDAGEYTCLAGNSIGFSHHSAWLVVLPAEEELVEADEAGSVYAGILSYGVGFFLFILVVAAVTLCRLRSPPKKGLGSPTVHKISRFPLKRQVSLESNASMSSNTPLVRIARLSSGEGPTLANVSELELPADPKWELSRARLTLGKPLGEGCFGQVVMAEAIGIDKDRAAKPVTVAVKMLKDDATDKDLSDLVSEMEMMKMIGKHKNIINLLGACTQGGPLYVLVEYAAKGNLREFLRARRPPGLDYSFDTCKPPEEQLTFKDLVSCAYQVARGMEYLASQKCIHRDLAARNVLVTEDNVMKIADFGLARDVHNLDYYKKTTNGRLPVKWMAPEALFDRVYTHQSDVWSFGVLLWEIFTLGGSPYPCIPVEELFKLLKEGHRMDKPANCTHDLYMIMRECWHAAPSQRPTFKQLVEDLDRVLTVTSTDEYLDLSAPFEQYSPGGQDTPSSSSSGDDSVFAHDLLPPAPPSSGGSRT
T23 sequence (Q96PN8 whole entry): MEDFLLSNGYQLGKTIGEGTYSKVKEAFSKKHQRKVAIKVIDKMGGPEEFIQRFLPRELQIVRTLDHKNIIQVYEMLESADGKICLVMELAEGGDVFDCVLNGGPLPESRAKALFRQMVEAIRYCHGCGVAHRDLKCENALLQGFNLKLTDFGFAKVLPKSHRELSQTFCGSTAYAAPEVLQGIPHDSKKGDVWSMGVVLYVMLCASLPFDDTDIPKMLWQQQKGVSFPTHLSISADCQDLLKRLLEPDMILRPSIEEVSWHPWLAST
T14 sequence (Q9UF33 23-1036): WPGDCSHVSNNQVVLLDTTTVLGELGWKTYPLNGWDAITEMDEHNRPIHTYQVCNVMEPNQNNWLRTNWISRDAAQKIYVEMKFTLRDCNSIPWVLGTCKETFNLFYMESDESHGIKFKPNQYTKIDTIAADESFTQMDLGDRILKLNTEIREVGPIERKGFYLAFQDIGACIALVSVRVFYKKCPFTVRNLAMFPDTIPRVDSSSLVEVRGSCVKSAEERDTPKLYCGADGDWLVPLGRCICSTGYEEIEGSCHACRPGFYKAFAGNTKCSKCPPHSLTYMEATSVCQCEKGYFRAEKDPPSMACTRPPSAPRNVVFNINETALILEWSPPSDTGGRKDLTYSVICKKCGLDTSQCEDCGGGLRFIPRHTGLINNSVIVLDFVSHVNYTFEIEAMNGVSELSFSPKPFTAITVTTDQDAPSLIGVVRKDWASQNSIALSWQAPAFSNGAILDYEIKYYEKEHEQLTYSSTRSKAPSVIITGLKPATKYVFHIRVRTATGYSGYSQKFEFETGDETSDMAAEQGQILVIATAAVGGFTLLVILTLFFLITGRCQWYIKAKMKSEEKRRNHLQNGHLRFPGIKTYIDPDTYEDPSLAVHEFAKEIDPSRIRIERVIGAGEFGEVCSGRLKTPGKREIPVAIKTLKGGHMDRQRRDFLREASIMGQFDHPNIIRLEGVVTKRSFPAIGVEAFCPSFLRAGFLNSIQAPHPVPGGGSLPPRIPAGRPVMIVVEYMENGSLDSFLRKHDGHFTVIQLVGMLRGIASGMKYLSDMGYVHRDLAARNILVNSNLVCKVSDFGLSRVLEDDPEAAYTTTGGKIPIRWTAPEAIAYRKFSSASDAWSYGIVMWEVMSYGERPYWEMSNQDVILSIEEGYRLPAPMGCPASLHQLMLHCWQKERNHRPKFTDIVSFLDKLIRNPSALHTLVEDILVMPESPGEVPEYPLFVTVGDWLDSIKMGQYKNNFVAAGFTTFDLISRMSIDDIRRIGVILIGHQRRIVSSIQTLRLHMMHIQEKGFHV

SMILES | remaining activity at 1 µM (Hs_CK1ε) [%] | remaining activity at 10 µM (Hs_CK1ε) [%] | IC50 at 48 h [1] [µM] | remaining activity at 1 µM (MmCLK1) [%] | remaining activity at 10 µM (MmCLK1) [%] | pIC50 (MmCLK1; [4]) | toxicity towards fibroblasts (Human skin fibroblasts) | remaining activity at 1 µM (Hs_CDK5/p25) [%] | remaining activity at 10 µM (Hs_CDK5/p25) [%] | IC50 at 48 h [2] [nM] | pIC50 (HsCLK4; duplicate) | pIC50 (HsCLK2) | pIC50 (HsCLK3) | also measured
Cc1ccc(-n2cc(COc3cccc4cnc(Nc5cc(Cl)cc(Cl)c5)nc34)nn2)c([N+](=O)[O-])c1 [7b, N-(3,5-dichlorophenyl)-8-((1-(4-methyl-2-nitrophenyl)-1H-1,2,3-triazol-4-yl)methoxy)quinazolin-2-amine] | 81 | 47 | 24 | 14 | 17 | 6.43 to 6.55 | non-toxic | 93 | 68 | > 25000 | 6.42 | 7.01 | 5.48 | –
COC(=O)c1ccc(-n2cc(COc3cccc4cnc(Nc5cccc(Cl)c5)nc34)nn2)c([N+](=O)[O-])c1 [12f, Methyl 4-(4-(((2-((3-chlorophenyl)amino)quinazolin-8-yl)oxy)methyl)-1H-1,2,3-triazol-1-yl)-3-nitrobenzoate] | ≥ 100 | 95 | > 25 | 28 | 18 | 6.61 | non-active | ≥ 100 | 61 | > 25000 | – | – | – | –
N[C@H]1CC[C@@H](n2cc(COc3cccc4cnc(Nc5cc(Cl)cc(Cl)c5)nc34)nn2)CC1 [16b, 8-((1-((cis)-4-Aminocyclohexyl)-1H-1,2,3-triazol-4-yl)methoxy)-N-(3,5-dichlorophenyl)quinazolin-2-amine hydrochloride] | 82 | 24 | 3 | 19 | 8 | 6.74 | – | 87 | 44 | 2000 | 7.08 | 7.70 | 5.49 | –
O=[N+]([O-])c1cc(CO)ccc1-n1cc(COc2cccc3cnc(Nc4cccc(Cl)c4)nc23)nn1 [12e, 4-(4-(((2-((3-Chlorophenyl)amino)quinazolin-8-yl)oxy)methyl)-1H-1,2,3-triazol-1-yl)-3-nitrobenzyl alcohol] | ≥ 100 | 52 | 4 | 74 | 35 | 6.72 | moderate toxicity | ≥ 100 | 54 | 3000 | 6.71 | 7.30 | 5.12 and 5.13 | pIC50 (HsCLK4): 6.70 to 6.82
O=[N+]([O-])c1cc(Br)ccc1-n1cc(COc2cccc3cnc(Nc4cccc(Cl)c4)nc23)nn1 [12d, N-(3-Chlorophenyl)-8-((1-(4-bromo-2-nitrophenyl)-1H-1,2,3-triazol-4-yl)methoxy)quinazolin-2-amine] | ≥ 100 | 90 | > 25 | 27 | 22 | 6.41 | moderate toxicity | ≥ 100 | ≥ 100 | 2000 | – | – | – | –
Cc1ccc(-n2cc(COc3cccc4cnc(Nc5cccc(Cl)c5)nc34)nn2)c([N+](=O)[O-])c1 [DB18] | – | – | – | – | – | – | – | – | – | – | – | – | – | remaining binding at 1 µM (NIM1): 100%; remaining binding at 1 µM (PIP5K1A): 100%; remaining binding at 1 µM (OSR1): 100%; remaining binding at 1 µM (LYN): 93%; remaining binding at 1 µM (PFCDPK1(P.falciparum)): 100%; remaining binding at 1 µM (SGK3): 100%; remaining binding at 1 µM (TEC): 100%; remaining binding at 1 µM (EPHA6): 100%; remaining binding at 1 µM (FGFR3(G697C)): 97%; remaining binding at 1 µM (PRKG1): 100%; pIC50 (MmCLK1): 6.92; remaining binding at 1 µM [3]: 100%; remaining binding at 1 µM (CDKL2): 97%; remaining binding at 1 µM (CIT): 100%; remaining binding at 1 µM (YANK2): 100%; remaining binding at 1 µM (PRKCE): 100%; remaining binding at 1 µM (TSSK1B): 100%; remaining binding at 1 µM (TSSK3): 96%; remaining binding at 1 µM (TAOK1): 100%
O=C(O)c1ccc(-n2cc(COc3cccc4cnc(Nc5cccc(Cl)c5)nc34)nn2)c([N+](=O)[O-])c1 [12g, 4-(4-(((2-((3-Chlorophenyl)amino)quinazolin-8-yl)oxy)methyl)-1H-1,2,3-triazol-1-yl)-3-nitrobenzoic acid] | 98 | 72 | > 25 | 13 | 5 | 7.62 | non-active | 45 | 97 | > 25000 | 7.26 | 7.55 | 6.47 | –
